Laboratory results taken from patent EP0183174A2, “Substituted phenoxy urea, processes for its preparation and herbicide containing it as active ingredient” (KUMIAI CHEMICAL INDUSTRY CO., LTD., priority 1984, dated 1986).

Columns and labels:
[1] = tested on: barnyardgrass (Echinochloa crus-galli L.); assay: Test Example 1: herbicidal test by water treatment in a paddy field; format: in vivo; parameters: key: 5: Withered; 4.5: Herbicidal effect (or phytotoxicity) in a range of 90 to 99%; 4: Herbicidal effect (or phytotoxicity) in a range of 80 to 89%; 3.5: Herbicidal effect (or phytotoxicity) in a range of 70 to 79%; 3: Herbicidal effect (or phytotoxicity) in a range of 60 to 69%; 2.5: Herbicidal effect (or phytotoxicity) in a range of 50 to 59%; 2: Herbicidal effect (or phytotoxicity) in a range of 40 to 49%; 1.5: Herbicidal effect (or phytotoxicity) in a range of 30 to 39%; 1: Herbicidal effect (or phytotoxicity) in a range of 20 to 29%; 0.5: Herbicidal effect (or phytotoxicity) in a range of 1 to 19%; 0: No herbicidal effect (or no phytotoxicity); conditions: evaluated thirty days after application
Procedure: (§1) Into each porcelain pot having a diameter of 10 cm, paddy soil was filled and puddled, and seeds of barnyardgrass (Echinochloa crus-galli L.), smallflower flatsedge, monochoria and Japanese bulrush were sown, and water was filled in a-depth of 3 cm. One day later, a predetermined amount of the wettable powder prepared in Formulation Example 3 and diluted with water was dropwise applied to the surface of the water (dose of the active ingredient: 4 kg/hectare). Thereafter, they were grown in a green house. Thirty days after the application, the herbicidal effects were evaluated in accordance with the standards as identified in Table 5.

smallflower flatsedge = assay: as above; format: in vivo, Cvperus diffcrmis L.; parameters: key: 5: Withered; 4.5: Herbicidal effect (or phytotoxicity) in a range of 90 to 99%; 4: Herbicidal effect (or phytotoxicity) in a range of 80 to 89%; 3.5: Herbicidal effect (or phytotoxicity) in a range of 70 to 79%; 3: Herbicidal effect (or phytotoxicity) in a range of 60 to 69%; 2.5: Herbicidal effect (or phytotoxicity) in a range of 50 to 59%; 2: Herbicidal effect (or phytotoxicity) in a range of 40 to 49%; 1.5: Herbicidal effect (or phytotoxicity) in a range of 30 to 39%; 1: Herbicidal effect (or phytotoxicity) in a range of 20 to 29%; 0.5: Herbicidal effect (or phytotoxicity) in a range of 1 to 19%; 0: No herbicidal effect (or no phytotoxicity); conditions: evaluated thirty days after application
Procedure: as §1

monochoria = assay: as above; format: in vivo, Monochoria vaginalis Presl; parameters: key: 5: Withered; 4.5: Herbicidal effect (or phytotoxicity) in a range of 90 to 99%; 4: Herbicidal effect (or phytotoxicity) in a range of 80 to 89%; 3.5: Herbicidal effect (or phytotoxicity) in a range of 70 to 79%; 3: Herbicidal effect (or phytotoxicity) in a range of 60 to 69%; 2.5: Herbicidal effect (or phytotoxicity) in a range of 50 to 59%; 2: Herbicidal effect (or phytotoxicity) in a range of 40 to 49%; 1.5: Herbicidal effect (or phytotoxicity) in a range of 30 to 39%; 1: Herbicidal effect (or phytotoxicity) in a range of 20 to 29%; 0.5: Herbicidal effect (or phytotoxicity) in a range of 1 to 19%; 0: No herbicidal effect (or no phytotoxicity); conditions: evaluated thirty days after application
Procedure: as §1

Japanese bulrush = assay: as above; format: in vivo, Scir^pus juncoides Roxb.; parameters: key: 5: Withered; 4.5: Herbicidal effect (or phytotoxicity) in a range of 90 to 99%; 4: Herbicidal effect (or phytotoxicity) in a range of 80 to 89%; 3.5: Herbicidal effect (or phytotoxicity) in a range of 70 to 79%; 3: Herbicidal effect (or phytotoxicity) in a range of 60 to 69%; 2.5: Herbicidal effect (or phytotoxicity) in a range of 50 to 59%; 2: Herbicidal effect (or phytotoxicity) in a range of 40 to 49%; 1.5: Herbicidal effect (or phytotoxicity) in a range of 30 to 39%; 1: Herbicidal effect (or phytotoxicity) in a range of 20 to 29%; 0.5: Herbicidal effect (or phytotoxicity) in a range of 1 to 19%; 0: No herbicidal effect (or no phytotoxicity); conditions: evaluated thirty days after application
Procedure: as §1

barnyardgrass = assay: Test Example 2: herbicidal test for selectivity between rice and barnyardgrass (herbicidal effects); format: in vivo, Echinochloa crus-galli L.; conditions: barnyardgrass of 2-leaf stage, thirty days after application
Procedure: (§2) Into each 1/5000 are Wager pot, paddy soil was filled and puddled, then seeds of barnyardgrass were sown and grown until they reached 2-leaf stage. The barnyardgrass of 2-leaf stage was thinned out to adjust the number of barnyardgrass to fifteen per pot, and rice seedlings of 2-leaf stage were transplanted in the same pot. […] Thereafter, they were grown in a green house, and thirty days after the application, the herbicidal effects and phytotoxicity were evaluated in accordance with the standards as identified in Table 5.

Paddy rice = assay: Test Example 2: herbicidal test for selectivity between rice and barnyardgrass (phytotoxicity); format: in vivo; conditions: thirty days after application
Procedure: as §2

[2] = Herbicidal activity of the prior-art compound, used in the same manner as the compound of the invention (general statement); format: in vivo; conditions: used in the same manner as the compound of the present invention
[3] = water treatment in paddy field pot, dose of active ingredient 4 kg/hectare
[4] = dose of the active ingredient 4 kg/hectare, wettable powder applied to water surface one day after sowing

For “3-(2,5-Dichlorophenoxy)-1,1-dimethyl urea trichloroacetate [Compound No. 185]”, the “Herbicidal effects Barnyard grass” value [1, 3] was 5, the “Herbicidal effects Small flower flatsedge” value (smallflower flatsedge; [3]) was 5 and the “Herbicidal effects Monochoria” value (monochoria; [3]) was 5. The “Herbicidal effects Japanese bulrush” value (Japanese bulrush; [3]) was 5.

For “3-(3,5-Dichlorophenoxy)-1,1-dimethyl urea trichloroacetate [Compound No. 184]”, the “Herbicidal effects Barnyard grass” value [1, 3] was 5, the “Herbicidal effects Small flower flatsedge” value (smallflower flatsedge; [3]) was 5 and the “Herbicidal effects Monochoria” value (monochoria; [3]) was 5. The “Herbicidal effects Japanese bulrush” value (Japanese bulrush; [3]) was 5.

With `NC(=O)NOc1cccc(Cl)c1` [Comparative Compound] the “Herbicidal effects Barnyard grass” value [1, 3] was 0, the “Herbicidal effects Small flower flatsedge” value (smallflower flatsedge; [3]) was 0 and the “Herbicidal effects Monochoria” value (monochoria; [3]) was 0. The “Herbicidal effects Japanese bulrush” value (Japanese bulrush; [3]) was 0.

For `C=CCNC(=O)NOc1cc(Cl)ccc1Cl` [Compound No. 2, 1-Allyl-3-(2,5-dichlorophenoxy) urea], the “Herbicidal effects Barnyard grass” value [1, 4] was 5, the “Herbicidal effects Small flower flatsedge” value (smallflower flatsedge; [4]) was 5 and the “Herbicidal effects Monochoria” value (monochoria; [4]) was 5. For the same molecule, the “Herbicidal effects Japanese bulrush” value (Japanese bulrush; [4]) was 5, the “Herbicidal effects Barnyard grass” value (barnyardgrass; Dose 0.5 kg/Ha) was 5 and the “Herbicidal effects Barnyard grass” value (barnyardgrass; Dose 1 kg/Ha) was 5. The “Phytotoxicity Paddy rice” value (Paddy rice; Dose 0.5 kg/Ha, transplanted rice seedlings of 2-leaf stage) was 0 and the “Phytotoxicity Paddy rice” value (Paddy rice; Dose 1 kg/Ha, transplanted rice seedlings of 2-leaf stage) was 1 (Herbicidal effect (or phytotoxicity) in a range of 20 to 29%).

For `O=C(NOc1cccc(Cl)c1Cl)NC1CCCCC1` [Compound No. 3, 1-Cyclohexyl-3-(2,3-dichlorophenoxy) urea], the “Herbicidal effects Barnyard grass” value [1, 4] was 5, the “Herbicidal effects Small flower flatsedge” value (smallflower flatsedge; [4]) was 5 and the “Herbicidal effects Monochoria” value (monochoria; [4]) was 5. For the same molecule, the “Herbicidal effects Japanese bulrush” value (Japanese bulrush; [4]) was 5.

In the case of `CN(C)C(=O)Nc1ccc(Cl)c(Cl)c1` [DCMU, reference compound], the “Herbicidal effects Barnyard grass” value (barnyardgrass; Dose 0.25 kg/Ha, water surface application) is reported as 3 (Herbicidal effect (or phytotoxicity) in a range of 60 to 69%), the “Herbicidal effects Barnyard grass” value (barnyardgrass; Dose 0.5 kg/Ha, water surface application) is reported as 5 and the “Herbicidal effects Barnyard grass” value (barnyardgrass; Dose 1 kg/Ha, water surface application) is reported as 5. For the same molecule, the “Phytotoxicity Paddy rice” value (Paddy rice; Dose 0.25 kg/Ha, rice seedlings of 2-leaf stage transplanted, water surface application) was 2 (Herbicidal effect (or phytotoxicity) in a range of 40 to 49%), the “Phytotoxicity Paddy rice” value (Paddy rice; Dose 0.5 kg/Ha, rice seedlings of 2-leaf stage transplanted, water surface application) was 4 (Herbicidal effect (or phytotoxicity) in a range of 80 to 89%) and the “Phytotoxicity Paddy rice” value (Paddy rice; Dose 1 kg/Ha, rice seedlings of 2-leaf stage transplanted, water surface application) was 5.

In the case of `NC(=O)NOc1cccc(Cl)c1` [m-chlorophenoxy urea], the herbicidal activites [2] is reported as “does not show any herbicidal activites”.
